Data taken from patent US20230067609A1, “ENDOPHYTIC MICROBES FOR GROWTH PROMOTION OF CROP PLANTS AND SUPPRESSION OF AGGRESSIVE INVASIVE PLANT SPECIES, BIOHERBICIDES COMPRISING THE SAME AND METHODS OF USE THEREOF” (priority 2018, published 2023).

Columns and labels:
Assay type in all cases: in vivo
[1] = tested on: Phragmites australis plants; experiment: Sodium butyrate applied to roots over a 6-week period; conditions: 10 mM applied to roots over a 6-week period
Poa annua = experiment: Screen of short-chain organic acids for effects on roots, agarose medium, seeds inoculated with Pseudomonas strain SLB4; conditions: for Inhibitory Activity On Germination / Inhibitory Activity On Gravitropism / Inhibitory Activity On Hair Length / Inhibitory Activity On Root Length / Inhibitory Activity On Bact. Entry: organic acids 0-1 mM in 0.7% agarose, 7 days; for Inhibitory Activity On Bact. Entry: Pseudomonas strain SLB4
Poa reptans seedlings = experiment: Seeds germinated on agarose with and without 0.05% arginine
Description: In laboratory experiments, we germinated seeds of the grass Poa reptans on agarose with and without 0.05% arginine.
This is further evidence that exposure of plants to arginine results in excess production of reactive oxygen species (ROS).

Structure (SMILES) | effects on roots and shoots [1] | seedling growth inhibition (Poa annua) | Inhibitory Activity On Germination (Poa annua) | Inhibitory Activity On Gravitropism (Poa annua) | Inhibitory Activity On Hair Length (Poa annua) | Inhibitory Activity On Root Length (Poa annua) | Inhibitory Activity On Bact. Entry (Poa annua) | chlorophylls in shoot cells (Poa reptans seedlings; 0.05% arginine) | growth of shoots and roots (Poa reptans seedlings; 0.05% arginine in agarose, 7 days) | colonization of chloroplasts by bacteria (Poa reptans seedlings; 0.05% arginine, leaf cells, microscopy) | root hairs (Poa reptans seedlings; arginine-treated seedlings) | hydrogen peroxide around roots (Poa reptans seedlings; diaminobenzidine tetrahydrochloride stain) | superoxide in roots (Poa reptans seedlings; nitro blue tetrazolium staining)
CCCC(=O)[O-].[Na+] [sodium butyrate] | suppression of root and shoot growth, reduced root branching, root browning, and increased bacterial and fungal growth on roots |  |  |  |  |  |  |  |  |  |  |  | 
O=C(O)C(=O)O [Oxalic, Oxalic acid] |  | seedling growth inhibition occurred | No | Yes | Yes | Yes | Yes |  |  |  |  |  | 
CCCCCC(=O)O [Hexanoic, Hexanoic acid] |  | seedling growth inhibition occurred | No | Yes | Yes | Yes | No |  |  |  |  |  | 
O=C(O)[C@]1(O)C[C@@H](O)[C@@H](O)[C@H](O)C1 [Quinic, Quinic acid] |  |  | No | No | No | No | No |  |  |  |  |  | 
CCC(=O)O [Propionic, Propionic acid] |  | seedling growth inhibition occurred | No | Yes | Yes | Yes | Yes |  |  |  |  |  | 
O=C(O)CC(O)(CC(=O)O)C(=O)O [Citric, Citric acid] |  | seedling growth inhibition occurred | No | Yes | Yes | Yes | No |  |  |  |  |  | 
N=C(N)NCCC[C@H](N)C(=O)O [arginine] |  |  |  |  |  |  |  | lack evidence of chlorophylls | repression of shoots and roots | all chloroplasts were colonized by actively motile bacteria | longer root hairs | high levels of hydrogen peroxide around roots | higher presence of superoxide
O=C(O)c1ccccc1 [Benzoic, Benzoic acid] |  | seedling growth inhibition occurred | No | Yes | Yes | Yes | No |  |  |  |  |  | 
CCCC(=O)O [Butyric, Butyric acid] |  | seedling growth inhibition occurred | No | Yes | Yes | Yes | Yes |  |  |  |  |  | 
CC(=O)O [Acetic, Acetic acid] |  | seedling growth inhibition occurred | No | No | No | Yes | No |  |  |  |  |  | 
